The target of assay [1] is cap-dependent endonuclease (RNP fraction containing PB1•PB2•PA complex) (Influenza A virus, UniProt P15659). Description: biochemical. As to conditions: RNP from A/WSN/33 virus, capped Cy3/BHQ2 30mer RNA substrate, 60 minutes at room temperature; read-out: CEN IC50.
Another assay has as its system influenza virus. Description: microbe, parasite or virus in culture. The assay is classed as cell-based, influenza virus (MDBK or MDCK cells). Particulars: unidentified influenza virus, 72 h.
The mark [2] stands for this setting: read-out: CPE EC50, effective concentration to achieve 50% CPE inhibition, 3 days incubation, WST-8.

Like-named read-outs stand apart in the source and are kept apart here.

In general, IC50 refers to the midpoint of a concentration-inhibition curve. For the compound `COCCN1C[C@H](C(c2ccccc2)c2ccccc2)n2cc(C(=O)O)c(=O)c(O)c2C1=O` [Example 2], in assay [1], the IC50 worked out at 48 nM. Besides, in the assay on influenza virus (setting [2]), the EC50 turned out to be 293 nM. Take `CCN1C[C@H](C(c2ccccc2)c2ccccc2)n2cc(C(=O)O)c(=O)c(O)c2C1=O` [Example 14]: the 50% inhibitory concentration (IC50) in assay [1] came out at 43 nM. Moreover, in the assay on influenza virus (setting [2]), the EC50 is 313 nM.

For the compound `O=C(O)c1cn2c(c(O)c1=O)C(=O)N(CC1CCCCO1)C[C@@H]2C(c1ccccc1)c1ccccc1` (some centres unmarked) [Example 26], the IC50 in assay [1] stood at 108 nM. Also, the EC50 in the assay on influenza virus (setting [2]) worked out at 547 nM. The matching figures for `O=C1c2c(O)c(=O)ccn2[C@@H](C(c2ccccc2)c2ccccc2)CN1Cc1ccccc1` [Example 37]: 101 nM and 318 nM. On to `COCCN1C[C@H](C(c2ccccc2)c2ccccc2)n2cc(CO)c(=O)c(O)c2C1=O` [Example 48], for which the IC50 in assay [1] was found to be 87 nM. Same read-out and setting: as for `COCCN1C[C@H](C(c2ccccc2)c2ccccc2)n2cc(N)c(=O)c(O)c2C1=O` [Example 56], the figure is 358 nM.

`COCCN1C[C@H](C(c2ccccc2)c2ccccc2)n2cc(OC)c(=O)c(O)c2C1=O` [Example 62]: the IC50 in assay [1] stood at 110 nM. Consider `COCCN1CN(C(c2ccccc2)c2ccccc2)n2cc(C(=O)O)c(=O)c(O)c2C1=O` [Example 94], for which, in assay [1], the half-inhibitory concentration (IC50) turned out to be 96 nM. Still for that read-out and setting: as for `COCCN1CN(Cc2ccccc2-c2ccccc2)n2ccc(=O)c(O)c2C1=O` [Example 99], the figure is 341 nM. With `O=C1c2c(O)c(=O)ccn2N(C2c3ccccc3CCc3ccccc32)CN1C1CC1` [Example 108], the half-inhibitory concentration (IC50) in assay [1] was found to be 37 nM. Besides, the EC50 in the assay on influenza virus (setting [2]) stood at 19 nM. For `CN(CCN1CN(C(c2ccccc2)c2ccccc2)n2ccc(=O)c(O)c2C1=O)S(=O)(=O)c1ccccc1` [Example 138], the IC50 in assay [1] was found to be 166 nM.

`CN(CCN1CN(C(c2ccccc2)c2ccccc2)n2ccc(=O)c(O)c2C1=O)S(C)(=O)=O` [Example 139]: in assay [1], the concentration for half-maximal inhibition (IC50) was 189 nM. In addition, in the assay on influenza virus (setting [2]), the EC50 is 741 nM. With `O=C1c2c(O)c(=O)ccn2N(C(c2ccccc2)c2ccccc2)CN1CCNS(=O)(=O)c1ccccc1` [Example 143], the IC50 in assay [1] worked out at 224 nM. Besides, in the assay on influenza virus (setting [2]), the EC50 was found to be 333 nM. Regarding `O=C(NCCN1CN(C(c2ccccc2)c2ccccc2)n2ccc(=O)c(O)c2C1=O)c1ccccc1` [Example 150], the concentration for half-maximal inhibition (IC50) in assay [1] was determined as 193 nM. As to `O=C1c2c(O)c(=O)ccn2C(C(c2ccccc2)c2ccccc2)N2CCCCN12` (centres unmarked) [Example 178], in assay [1], the IC50 was found to be 61 nM. Besides, the EC50 in the assay on influenza virus (setting [2]) turned out to be 75 nM. As to `COCC(COC)N1CN(C2c3ccccc3CCc3ccccc32)n2ccc(=O)c(O)c2C1=O` [Example 272], the IC50 in assay [1] was found to be 82 nM. For `O=C1c2c(O)c(=O)ccn2N(C2c3ccccc3CSc3ccccc32)CN1C1CCC(F)(F)CC1` (centres unmarked) [Example 313], the IC50 in assay [1] came out at 189 nM. On the same count and under the same terms, as for `COCCN1CN(C2c3ccccc3CSc3c(F)cccc32)n2ccc(=O)c(O)c2C1=O` (centres unmarked) [Example 336], the figure is 51 nM.

On to `COCC(COC)N1CN(C2c3ccccc3CSc3c(F)cccc32)n2ccc(=O)c(O)c2C1=O` (centres unmarked) [Example 339], for which, in assay [1], the half-inhibitory concentration (IC50) worked out at 183 nM. As for `CN1CN(C2c3ccccc3CSc3cc(Cl)ccc32)n2ccc(=O)c(O)c2C1=O` (centres unmarked) [Example 348], in assay [1], the IC50 stood at 54 nM. As for `CC(C)N1CN(C2c3ccccc3CSc3cc(F)ccc32)n2ccc(=O)c(O)c2C1=O` (centres unmarked) [Example 352], the half-maximal inhibitory concentration (IC50) in assay [1] worked out at 67 nM. The same measure, in the same setting: as for `Cc1cccc2c1SCc1ccccc1C2N1CN(C(C)C)C(=O)c2c(O)c(=O)ccn21` (centres unmarked) [Example 356], the figure is 66 nM.

On to `COCCN1CN(C2c3ccccc3COc3c(Cl)cccc32)n2ccc(=O)c(O)c2C1=O` (centres unmarked) [Example 396], for which the IC50 in assay [1] amounted to 56 nM.

For the compound `C[C@@H](N1CN([C@@H]2c3ccccc3SCc3c(Cl)cccc32)n2ccc(=O)c(O)c2C1=O)C(F)(F)F` [Example 417], the IC50 in assay [1] came to 30 nM.

With `C[C@@H](N1CN([C@H]2c3ccccc3COc3c(F)cccc32)n2ccc(=O)c(O)c2C1=O)C(F)(F)F` [Example 425], the EC50 in the assay with influenza virus (setting [2]) was determined as 47 nM. On the same count and under the same terms, then `C[C@@H](N1CN([C@H]2c3ccccc3SCc3cccc(Cl)c32)n2ccc(=O)c(O)c2C1=O)C(F)(F)F` [Example 430], with 29 nM. The same measure, in the same setting: then `C[C@H](N1CN([C@@H]2c3ccccc3SCc3cccc(Cl)c32)n2ccc(=O)c(O)c2C1=O)C(F)(F)F` [Example 431], with 11 nM; and `C[C@@H](N1CN([C@H]2c3ccc(C(F)(F)F)cc3CSc3ccccc32)n2ccc(=O)c(O)c2C1=O)C(F)(F)F` [Example 432], with 62 nM; and `C[C@@H](N1CN([C@@H]2c3cc(Cl)ccc3CSc3ccccc32)n2ccc(=O)c(O)c2C1=O)C(F)(F)F` [Example 443], with 4 nM. Take `C[C@@H](N1CN([C@H]2c3ccccc3CSc3c(Cl)cccc32)n2ccc(=O)c(O)c2C1=O)C(F)(F)F` [Example 450]: in the assay on influenza virus (setting [2]), the EC50 amounted to 14 nM. The same measure, in the same setting: then `C[C@H](N1CN([C@H]2c3ccccc3CSc3c(F)cccc32)n2ccc(=O)c(O)c2C1=O)C(F)(F)F` [Example 453], with 49 nM. Take `C[C@@H](N1CN([C@H]2c3ccc(F)cc3CSc3ccccc32)n2ccc(=O)c(O)c2C1=O)C(F)(F)F` [Example 454]: the IC50 in assay [1] was found to be 12 nM. For `C[C@@H](N1CN([C@H]2c3ccccc3CSc3ccc(Cl)cc32)n2ccc(=O)c(O)c2C1=O)C(F)(F)F` [Example 455], the EC50 in the assay on influenza virus (setting [2]) was 71 nM.

Turning to `C[C@@H](N1CN([C@H]2c3ccccc3CSc3cc(F)ccc32)n2ccc(=O)c(O)c2C1=O)C(F)(F)F` [Example 458], in the assay with influenza virus (setting [2]), the EC50 amounted to 14 nM. For `C[C@H](N1CN([C@H]2c3ccccc3CSc3ccc(F)cc32)n2ccc(=O)c(O)c2C1=O)C(F)(F)F` [Example 461], in the assay on influenza virus (setting [2]), the EC50 was found to be 74 nM. `C[C@@H](N1CN([C@H]2c3cc(F)ccc3CSc3ccc(F)cc32)n2ccc(=O)c(O)c2C1=O)C(F)(F)F` [Example 462]: in the assay on influenza virus (setting [2]), the EC50 worked out at 11 nM. Take `C[C@@H](N1CN([C@@H]2c3ccccc3SCc3c(Br)cccc32)n2ccc(=O)c(O)c2C1=O)C(F)(F)F` [Example 463]: in assay [1], the half-inhibitory concentration (IC50) was determined as 12 nM. Regarding `C[C@@H](N1CN([C@H]2c3cccc(F)c3CSc3c(F)cccc32)n2ccc(=O)c(O)c2C1=O)C(F)(F)F` [Example 469], the IC50 in assay [1] worked out at 16 nM. Same read-out and setting: then `C[C@@H](N1CN([C@H]2c3ccc(F)cc3CSc3c(F)cccc32)n2ccc(=O)c(O)c2C1=O)C(F)(F)F` [Example 470], with 8 nM. `C[C@H](N1CN([C@H]2c3ccccc3CSc3ccc(Cl)cc32)n2ccc(=O)c(O)c2C1=O)C(F)(F)F` [Example 475]: the EC50 in the assay on influenza virus (setting [2]) is 441 nM. Turning to `CC(CN(C)C)N1CN(C2c3ccccc3CCc3ccccc32)n2ccc(=O)c(O)c2C1=O` (centres unmarked) [Example 479], in the assay with influenza virus (setting [2]), the EC50 was 64 nM. Still for that read-out and setting: then `CC(CN(C)C)N1CN(C2c3ccccc3CSc3ccccc32)n2ccc(=O)c(O)c2C1=O` (centres unmarked) [Example 480], with 84 nM; and `CC(CN(C)C)N1CN(C2c3ccccc3CSc3c(Cl)cccc32)n2ccc(=O)c(O)c2C1=O` (centres unmarked) [Example 481], with 86 nM. The same measure, in the same setting: then `CC(CN1CCOCC1)N1CN(C2c3ccccc3CSc3ccccc32)n2ccc(=O)c(O)c2C1=O` (centres unmarked) [Example 483], with 27 nM; and `CC(C)N1CN(C2c3ccccc3CCc3ccccc32)n2cc(C(=O)O)c(=O)c(O)c2C1=O` [Example 491], with 99 nM. On the same count and under the same terms, then `CC(C)N1CN(C2c3ccccc3CSc3ccccc32)n2cc(C(=O)O)c(=O)c(O)c2C1=O` (centres unmarked) [Example 492], with 160 nM; and `CCN1C(=O)c2c(O)c(=O)ccn2C(C2c3ccccc3CSc3ccccc32)N1CC` (centres unmarked) [Example 502], with 142 nM; and `O=C(O)c1cn2c(c(O)c1=O)C(=O)N1CCCCN1C2C(c1ccccc1)c1ccccc1` (centres unmarked) [Example 507], with 197 nM. On to `CSCC1N(C(C)C)C(=O)c2c(O)c(=O)ccn2N1C1c2ccccc2CCc2ccccc21` (centres unmarked) [Example 514], for which the EC50 with influenza virus (setting [2]) stood at 18 nM.

Consider `CCCC1N(C(C)C)C(=O)c2c(O)c(=O)ccn2N1C1c2ccccc2CCc2ccccc21` (centres unmarked) [Example 518], for which, in the assay on influenza virus (setting [2]), the EC50 came to 24 nM. On to `COCCCC1N(C(C)C)C(=O)c2c(O)c(=O)ccn2N1C1c2ccccc2CCc2ccccc21` (centres unmarked) [Example 522], for which the EC50 with influenza virus (setting [2]) is 14 nM. Consider `COCCCC1N(C(C)C)C(=O)c2c(O)c(=O)ccn2N1C1c2cccc(F)c2CCc2c(F)cccc21` (centres unmarked) [Example 523], for which, in the assay with influenza virus (read-out: CPE EC50), the EC50 turned out to be 14 nM. Consider `CC(=O)N(C)CC1N(C(C)C)C(=O)c2c(O)c(=O)ccn2N1C1c2ccccc2CCc2ccccc21` (centres unmarked) [Example 525], for which the IC50 in assay [1] came out at 141 nM. Take `COCCCC1N(C(C)C)C(=O)c2c(O)c(=O)ccn2N1C1c2ccc(F)cc2CCc2cc(F)ccc21` (centres unmarked) [Example 526]: in the assay with influenza virus (setting [2]), the EC50 amounted to 19 nM. Same read-out and setting: as for `CC(C)N1C(=O)c2c(O)c(=O)ccn2N(C2c3ccccc3CCc3ccccc32)C1CCN` (centres unmarked) [Example 533], the figure is 391 nM; as for `CC(C)N1C(=O)c2c(O)c(=O)ccn2N(C2c3ccccc3CCc3ccccc32)C1CCCN` (centres unmarked) [Example 534], 1200 nM; as for `CC(C)N1C(=O)c2c(O)c(=O)ccn2N(C2c3ccccc3CCc3ccccc32)C1CCN(C)C` (centres unmarked) [Example 537], 22 nM. Take `CCN(CC)CC1N(CCO)C(=O)c2c(O)c(=O)ccn2N1C1c2ccccc2CCc2ccccc21` (centres unmarked) [Example 550]: the EC50 with influenza virus (setting [2]) came to 42 nM. Consider `CN(C)CC1N(CCO)C(=O)c2c(O)c(=O)ccn2N1C1c2ccccc2CCc2ccccc21` (centres unmarked) [Example 551], for which, in the assay on influenza virus (setting [2]), the EC50 came to 107 nM. As to `CC(C)C1N(CCO)C(=O)c2c(O)c(=O)ccn2N1C1c2ccccc2CCc2ccccc21` (centres unmarked) [Example 553], the half-maximal inhibitory concentration (IC50) in assay [1] worked out at 28 nM. For the compound `COCCN1C(=O)c2c(O)c(=O)c(C(=O)O)cn2N(C2c3ccccc3CCc3ccccc32)C1CCSC` (centres unmarked) [Example 556], in the assay on influenza virus (setting [2]), the EC50 is 412 nM. Still for that read-out and setting: as for `COCCN1C[C@H](C(c2ccccc2)c2ccccc2)n2cc(Cl)c(=O)c(O)c2C1=O` [Example 558], the figure is 541 nM; as for `N#Cc1ccccc1N1CC(C2c3ccccc3CCc3ccccc32)n2ccc(=O)c(O)c2C1=O` (centres unmarked) [Example 568], 2810 nM.

For the origin of these results see patent US9815835B2, “Substituted polycyclic carbamolypyridone derivative” (priority 2009, dated 2017).
